Experimental data: patent US11691972B2, “Compounds for targeted degradation of BRD9” (C4 Therapeutics, Inc., priority 2020, dated 2023)

The molecules below were run against T1, BRD9 (Homo sapiens, UniProt Q9H8M2) (assay: HiBiT BRD9 degradation assay in 293T.166 (BRD9-HiBiT) cells). Conditions: Table 1; 293T.166 cells, 2.0 hours; class symbols; read-out: HiBiT-Degradation 293T.166 BRD9 2.0 hours (DC50).
T1 sequence (Q9H8M2 1-597): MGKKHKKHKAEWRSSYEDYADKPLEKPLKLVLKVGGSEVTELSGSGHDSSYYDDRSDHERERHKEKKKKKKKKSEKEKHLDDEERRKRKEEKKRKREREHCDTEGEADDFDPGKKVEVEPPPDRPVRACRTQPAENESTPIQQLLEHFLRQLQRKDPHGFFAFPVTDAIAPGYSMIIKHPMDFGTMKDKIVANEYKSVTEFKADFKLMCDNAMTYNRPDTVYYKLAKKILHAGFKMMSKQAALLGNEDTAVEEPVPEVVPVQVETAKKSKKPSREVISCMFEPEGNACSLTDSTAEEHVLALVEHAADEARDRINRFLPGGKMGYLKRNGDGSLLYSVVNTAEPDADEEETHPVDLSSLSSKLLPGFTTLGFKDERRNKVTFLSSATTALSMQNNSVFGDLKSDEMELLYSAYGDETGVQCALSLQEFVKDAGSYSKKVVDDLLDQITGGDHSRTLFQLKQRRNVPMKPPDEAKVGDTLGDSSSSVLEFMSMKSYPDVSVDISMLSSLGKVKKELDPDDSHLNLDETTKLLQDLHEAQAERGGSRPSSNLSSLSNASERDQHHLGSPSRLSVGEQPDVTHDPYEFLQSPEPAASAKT
Assay type: cell-based
Parameters: endogenously expressing BRD9 with HiBiT fusion tag via CRISPR; host or cells: 293T.166 (BRD9-HiBiT), also expressing LgBiT ectopically
How it was run: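 Luminescence from the Nano-Glo HiBiT lytic reagent quantified BRD9 loss after compounds (top 10 μM, half-log, 11 points, duplicates) were incubated 2 h at 37° C. with 10,000 293T.166 BRD9-HiBiT/LgBiT cells per well, with controls lacking compound or lacking reagent.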

DC50, < 0.1 µM:
COc1cc(-c2cn(C)c(=O)c3cnccc23)cc(OC)c1CN1CCN(C(=O)CN2CCC(c3ccc(NC4CCC(=O)NC4=O)cc3)CC2)CC1 (centres unmarked) [Compound 15]
CN(C(=O)N1CCC(c2ccc(NC3CCC(=O)NC3=O)cc2F)CC1)C1CCN(C(=O)c2ccc(-c3cn(C)c(=O)c4ccccc34)cc2OC(F)(F)F)CC1 (centres unmarked) [Compound 139]
COc1cc(-c2cn(C)c(=O)c3ccccc23)cc(Cl)c1C(=O)N1CCC(N(C)C(=O)N2CCC(c3ccc(NC4CCC(=O)NC4=O)cc3)CC2)CC1 (centres unmarked) [Compound 136]
COc1cc(-c2cn(C)c(=O)c3[nH]ncc23)cc(Cl)c1CN1CCC(CC(=O)N2CCC(c3ccc(NC4CCC(=O)NC4=O)cc3)CC2)C(F)(F)C1 (single isomer, unassigned) [Compound 204]
COc1cc(-c2cn(C)c(=O)c3[nH]ncc23)cc(Cl)c1CN1CCC(N(C)C(=O)N2CCC(c3ccc(NC4CCC(=O)NC4=O)cc3)CC2)CC1 (centres unmarked) [Compound 117]
COc1cc(-c2cn(C)c(=O)c(C)c2C)cc(Cl)c1C(=O)N1CCC(N(C)C(=O)N2CCC(c3ccc(NC4CCC(=O)NC4=O)cc3)CC2)CC1 (centres unmarked) [Compound 133]
COc1cc(-c2cn(C)c(=O)c3[nH]ncc23)cc(OC)c1CN1CCN(C(=O)CC2CCN(c3ccc(NC4CCC(=O)NC4=O)cc3)CC2)CC1 (centres unmarked) [Compound 50]
COc1cc(-c2cn(C)c(=O)c(C)c2C)cc(Cl)c1CN1CCc2c(CC3CCN(c4ccc(NC5CCC(=O)NC5=O)cc4F)CC3)cccc2C1 (centres unmarked) [Compound 109]
COc1cc(-c2cn(C)c(=O)c(C)c2C)cc(Cl)c1C(=O)N1CCC(CCC2CCN(c3ccc(NC4CCC(=O)NC4=O)cc3F)CC2)CC1 (centres unmarked) [Compound 243]
COc1cc(-c2cn(C)c(=O)c3[nH]ncc23)cc(OC)c1CN1CCC(NC(=O)CN2CCC(c3ccc(NC4CCC(=O)NC4=O)cc3)CC2)CC1 (centres unmarked) [Compound 6]
COc1cc(-c2cn(C)c(=O)c3[nH]ncc23)cc(OC)c1CNc1ccc(CC2CCN(c3ccc(NC4CCC(=O)NC4=O)cc3)CC2)cc1 (centres unmarked) [Compound 205, 3-[4-[4-[[4-[[2,6-dimethoxy-4-(6-methyl-7-oxo-1H-pyrazolo[3,4-c]pyridin-4-yl)phenyl]methylamino]phenyl]methyl]-1-piperidyl]anilino]piperidine-2,6-dione]
COc1cc(-c2cn(C)c(=O)c3[nH]ncc23)cc(OC)c1CN1CCN(C(=O)CN2CCC(c3ccc(NC4CCC(=O)NC4=O)cc3C(F)F)CC2)CC1 (centres unmarked) [Compound 11]
COc1cc(-c2cn(C)c(=O)c3[nH]ncc23)cc(Cl)c1CN1CCC(CC(=O)N2CCC(c3ccc(NC4CCC(=O)NC4=O)cc3)C(F)(F)C2)CC1 (centres unmarked) [Compound 45]
COc1cc(-c2cn(C)c(=O)c3[nH]ncc23)cc(Cl)c1CN1CCC(C2CCN(c3ccc(NC4CCC(=O)NC4=O)cc3F)CC2)CC1 (centres unmarked) [Compound 73, 3-[4-[4-[1-[[2-chloro-6-methoxy-4-(6-methyl-7-oxo-1H-pyrazolo[3,4-c]pyridin-4-yl)phenyl]methyl]-4-piperidyl]-1-piperidyl]-3-fluoro-anilino]piperidine-2,6-dione]
COc1cc(-c2cn(C)c(=O)c3[nH]ncc23)cc(OC)c1CN1CC(NC(=O)CN2CCC(c3ccc(NC4CCC(=O)NC4=O)cc3)CC2)C1 (centres unmarked) [Compound 5]
COc1cc(-c2cn(C)c(=O)c3[nH]ncc23)cc(F)c1CC1CCN(CC(=O)N2CCC(c3ccc(NC4CCC(=O)NC4=O)cc3)CC2)CC1 (centres unmarked) [Compound 156, 3-[4-[1-[2-[4-[[2-fluoro-6-methoxy-4-(6-methyl-7-oxo-1H-pyrazolo[3,4-c]pyridin-4-yl)phenyl]methyl]-1-piperidyl]acetyl]-4-piperidyl]anilino]piperidine-2,6-dione]
COc1cc(-c2cn(C)c(=O)c3[nH]ncc23)cc(OC)c1CN1CCN(C(=O)CN2CC(c3ccc(NC4CCC(=O)NC4=O)cc3)C2)CC1 (centres unmarked) [Compound 32]
COc1cc(-c2cn(C)c(=O)c3[nH]ncc23)cc(Cl)c1CN1CCC(CC(=O)N2CCC(c3ccc(NC4CCC(=O)NC4=O)cc3)CC2)C(F)(F)C1 (single isomer, unassigned) [Compound 203, 3-[4-[1-[2-[1-[[2-chloro-6-methoxy-4-(6-methyl-7-oxo-1H-pyrazolo[3,4-c]pyridin-4-yl)phenyl]methyl]-3,3-difluoro-4-piperidyl]acetyl]-4-piperidyl]anilino]piperidine-2,6-dione]
COc1cc(-c2cn(C)c(=O)c3ccccc23)cc(OC)c1CN1C2CCC1CN(C(=O)CC1CCN(c3ccc(NC4CCC(=O)NC4=O)cc3C(F)(F)F)CC1)C2 (centres unmarked) [Compound 64]
COc1cc(-c2cn(C)c(=O)c3cnccc23)cc(Cl)c1C(=O)N1CCc2c(CC3CCN(c4ccc(NC5CCC(=O)NC5=O)cc4F)CC3)ccc(F)c2C1 (centres unmarked) [Compound 239, 3-[4-[4-[[2-[2-chloro-6-methoxy-4-(2-methyl-1-oxo-2,7-naphthyridin-4-yl)benzoyl]-8-fluoro-3,4-dihydro-1H-isoquinolin-5-yl]methyl]-1-piperidyl]-3-fluoro-anilino]piperidine-2,6-dione]
CN(C(=O)N1CCC(c2ccc(NC3CCC(=O)NC3=O)cc2)CC1)C1CCN(C(=O)c2ccc(-c3cn(C)c(=O)c4[nH]ncc34)cc2OC(F)(F)F)CC1 (centres unmarked) [Compound 130]
COc1cc(-c2cn(C)c(=O)c3ccccc23)cc(F)c1CN1CCC(N(C)C(=O)N2CCC(c3ccc(NC4CCC(=O)NC4=O)cc3)CC2)CC1 (centres unmarked) [Compound 119]
COc1cc(-c2cn(C)c(=O)c3cnccc23)cc(OC)c1C(=O)N1Cc2cccc(CC3CCN(c4ccc(NC5CCC(=O)NC5=O)cc4F)CC3)c2C(F)(F)C1 (centres unmarked) [Compound 234]
COc1cc(-c2cn(C)c(=O)c3[nH]ncc23)cc(OC)c1CN1CCc2cc(N3CCC(c4ccc(NC5CCC(=O)NC5=O)cc4)CC3)ccc2C1 (centres unmarked) [Compound 206, 3-[4-[1-[2-[[2,6-dimethoxy-4-(6-methyl-7-oxo-1H-pyrazolo[3,4-c]pyridin-4-yl)phenyl]methyl]-3,4-dihydro-1H-isoquinolin-6-yl]-4-piperidyl]anilino]piperidine-2,6-dione]
COc1cc(-c2cn(C)c(=O)c3[nH]ncc23)cc(OC)c1C(=O)N1CCN(C(=O)CN2CCC(c3ccc(NC4CCC(=O)NC4=O)cc3)CC2)CC1 (centres unmarked) [Compound 46, 3-[4-[1-[2-[4-[2,6-dimethoxy-4-(6-methyl-7-oxo-1H-pyrazolo[3,4-c]pyridin-4-yl)benzoyl]piperazin-1-yl]-2-oxo-ethyl]-4-piperidyl]anilino]piperidine-2,6-dione]

DC50, 0.1 to 0.5 µM:
COc1cc(-c2cn(C)c(=O)c3[nH]ncc23)cc(OC)c1CN1CC[C@@H](NC(=O)CN2CCC(c3ccc(NC4CCC(=O)NC4=O)cc3)CC2)C1 (stereo in doubt) [Compound 69, N-[1-[[2,6-dimethoxy-4-(6-methyl-7-oxo-1H-pyrazolo[3,4-c]pyridin-4-yl)phenyl]methyl]pyrrolidin-3-yl]-2-[4-[4-[(2,6-dioxo-3-piperidyl)amino]phenyl]-1-piperidyl]acetamide]

Same assay, conditions: Table 2; 293T.166 cells, 2.0 hours; class symbols; read-out: HiBiT-Degradation 293T.166 BRD9 2.0 hours (DC50)

DC50, < 0.1 µM:
COc1cc(-c2cn(C)c(=O)c3cnccc23)cc(Cl)c1CN1C2CCC1CN(C(=O)CC1CCN(c3ccc(NC4CCC(=O)NC4=O)cc3F)CC1)C2 (centres unmarked) [Compound 271]
COc1cc(-c2cn(C)c(=O)c(C)c2C)cc(Cl)c1CN1CCc2c(CC3CCN(c4ccc(NC5CCC(=O)NC5=O)cc4F)CC3)cccc2C1 (single isomer, unassigned) [Compound 250]
COc1cc(-c2cn(C)c(=O)c(C)c2C)cc(Cl)c1CN1CCC(C2CCN(c3ccc(NC4CCC(=O)NC4=O)cc3F)CC2)C(F)(F)C1 (single isomer, unassigned) [Compound 256]
Cn1cc(-c2ccc(CN3CCC(N4CCN(c5ccc(NC6CCC(=O)NC6=O)nc5)CC4)C(F)(F)C3)c(OC(F)(F)F)c2)c2ccncc2c1=O (centres unmarked) [Compound 253, 3-[[5-[4-[3,3-difluoro-1-[[4-(2-methyl-1-oxo-2,7-naphthyridin-4-yl)-2-(trifluoromethoxy)phenyl]methyl]-4-piperidyl]piperazin-1-yl]-2-pyridyl]amino]piperidine-2,6-dione]
COc1cc(-c2cn(C)c(=O)c3cnccc23)c(Cl)cc1CN1CCC(N2CCN(c3ccc(NC4CCC(=O)NC4=O)cc3F)CC2)C(F)(F)C1 (centres unmarked) [Compound 255]
COc1cc(-c2cn(C)c(=O)c(C)c2C)cc(OC)c1CN1CCC(N2CCN(c3ccc(OC4CCC(=O)NC4=O)cc3F)CC2)C(F)(F)C1 (centres unmarked) [Compound 251, 3-[4-[4-[1-[[2,6-dimethoxy-4-(1,4,5-trimethyl-6-oxo-3-pyridyl)phenyl]methyl]-3,3-difluoro-4-piperidyl]piperazin-1-yl]-3-fluoro-phenoxy]piperidine-2,6-dione]
